Where two headings read alike, the source gives them in different places.
Key:
[1] = test system: L1210/TK^−; experiment: Cytostatic assay, thymidine kinase-deficient L1210/TK^− cells; assay type: cell-based, murine; details: Mus musculus; for IC50: L1210
[2] = test system: FM3A/TK^−; experiment: Cytostatic assay, FM3A/TK^− cells; assay type: cell-based; details: Mus musculus, Table 1, read-out: CC50 FM3A/TK^−
[3] = target: thymidylate synthase (TS) (Mus musculus, UniProt P07607); experiment: TS activity in intact L1210/TK^− cells (tritium release); assay type: cell-based, murine; details: tritium release from [5-3H]dCyd, 4 hours preincubation; read-out: IC50 against TS, L1210/TK^−
Description: The activity of TS in intact L1210/0 and L1210/TK^− cells was measured by evaluation of tritium release from [5-^3H]dUMP (formed in the cells from [5-^3H]dUrd or [5-^3H]dCyd) in the reaction catalysed by TS. This method has been described in detail by Balzarini & De Clercq (1984). […] After 30 min, 2 h and 4 h preincubation of the cells with the compounds at 37° C., 1 μCi of [5-^3H]dUrd or [5-^3H]dCyd was added to the cell cultures. After 30 min incubation, 100 μL of the cell suspensions were withdrawn and added to a cold suspension of 500 μL activated charcoal (VWR, Haasrode, Belgium) (100 mg/ml in TCA 5%). After 10 min, the suspension was centrifuged at 13,000 rpm for 10 min, after which the radioactivity in 400 μL supernatant was counted in a liquid sinctillator using OptiPhase HiSafe (Perkin Elmer, Waldham, Mass.).

[4] = test system: Cem/hEnt-0; experiment: Cytostatic assay, CEM cells lacking the hEnt1 transporter; assay type: cell-based; details: Homo sapiens, CCRF-CEM, read-out: IC50 Cem/hEnt-0
Text: Data are mean (±SD) of at least two to four independent experiments. Table 8 identifies the phosphoramidate motif of compounds embodying the present invention, as discussed above with respect to Table 6, but with “Naph” standing for 1-naphthyl.

[5] = test system: L1210/0; experiment: Cytostatic assay, L1210/0 cells; assay type: cell-based, murine; details: Mus musculus; for IC50: read-out: IC50 L1210/0
Text: (§1) The cell lines employed were L1210/0 (a leukemia cell line), FM3A/0 (a breast cancer cell line), Cem/0 (an acute lymphoblastic leukemia cell line) and HeLa (a cervical cell line).

[6] = test system: HeLa/TK^−; experiment: Cytostatic assay, HeLa/TK^− cells; assay type: cell-based; details: Homo sapiens, HeLa
Text: as §1

[7] = target: T1, carboxypeptidase Y (Saccharomyces cerevisiae, UniProt P00729); experiment: Carboxypeptidase Y assay by in situ 31P NMR; assay type: in vitro ADME; details: yeast (Saccharomyces cerevisiae), 5 mg/mL, pH 7.6
T1 construct: purchased Sigma-Aldrich
T1 sequence (P00729 112-532): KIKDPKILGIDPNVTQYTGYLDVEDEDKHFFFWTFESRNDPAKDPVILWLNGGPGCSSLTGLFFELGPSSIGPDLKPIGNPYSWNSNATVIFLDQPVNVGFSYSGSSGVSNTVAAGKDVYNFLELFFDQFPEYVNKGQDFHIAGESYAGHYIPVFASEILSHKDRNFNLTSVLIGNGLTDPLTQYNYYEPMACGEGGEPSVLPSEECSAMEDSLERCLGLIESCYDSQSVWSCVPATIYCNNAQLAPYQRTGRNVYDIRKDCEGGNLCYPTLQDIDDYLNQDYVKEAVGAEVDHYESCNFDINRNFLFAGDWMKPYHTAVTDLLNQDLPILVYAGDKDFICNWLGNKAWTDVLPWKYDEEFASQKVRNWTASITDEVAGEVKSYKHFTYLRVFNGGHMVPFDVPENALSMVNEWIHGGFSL
Description: The enzymatic stability of the prodrug CPF-373 towards carboxypeptidase Y was studied using in situ ^31P NMR (202 MHz). The experiment was carried out by dissolving CPF-373 (3.0 mg) in d6-acetone (150 μL) and adding TRIZMA buffer pH 7.6 (300 μL). The resulting solution was placed in an NMR tube and a ^31P-NMR experiment at 25° C. was recorded as the blank experiment. The enzyme Carboxypeptidase Y (0.2 mg) was solubilised in TRIZMA (150 μL) and added to the solution of the phosphoramidate derivative in the NMR tube. Next, the tube was placed in the NMR machine, which was set to run a ^31P-NMR experiment (64 scans) every 4 minutes for 14 hours at 25° C. Data were processed and analysed with the Bruker Topspin 2.1 program. Carboxypeptidase Y and TRIZMA buffer were purchased from Sigma-Aldrich.
The compound (1) was incubated with carboxypeptidase Y (also known as cathepsin A) in TRIZMA buffer and the conversion of (1) was monitored by ^31P NMR. For a better resolution original spectra (lower graphs) and deconvoluted ones (upper graphs) are shown.
A enzymatic study using a carboxypeptidase Y assay was performed in which compound CPF 581, carboxypeptidase Y, and Trizma buffer (pH 7.6) were dissolved in acetone-d6 and ^31P NMR spectrum (202 MHz) spectra were recorded at regular intervals (every 7 min) over 14 h. […]

[8] = Stability in buffer at pH 1 by 31P NMR; assay type: physicochemical; details: 14 hours
Description: The stability of the prodrug CPF-373 towards hydrolysis at pH=1 was studied using in situ ^31P NMR (202 MHz). The ProTide CPF-373 (1) (2.6 mg) was dissolved in MeOD (0.1 mL) after which 0.5 mL buffer (pH=1) (prepared from equal parts of 0.2 M HCl and 0.2 M KCl) was added. Then the sample was transferred into an NMR tube, and a ^31P NMR experiment was performed at 37° C. recording the data every 12 minutes for 14 hours. Data were processed and analysed with the Bruker Topspin 2.1 program.
A chemical hydrolysis was evaluated under experimental conditions at pH 1 and pH 8 and monitored by ^31P NMR. During the assay (14 h) under acidic conditions (pH 1) only two peaks representing the two diastereoisomers were recorded.

[9] = Table 3, read-out: IC50 L1210/TK−
[10] = Table 6, read-out: IC50 L1210/TK^−

Sequence of thymidylate synthase (TS) (P07607 whole entry): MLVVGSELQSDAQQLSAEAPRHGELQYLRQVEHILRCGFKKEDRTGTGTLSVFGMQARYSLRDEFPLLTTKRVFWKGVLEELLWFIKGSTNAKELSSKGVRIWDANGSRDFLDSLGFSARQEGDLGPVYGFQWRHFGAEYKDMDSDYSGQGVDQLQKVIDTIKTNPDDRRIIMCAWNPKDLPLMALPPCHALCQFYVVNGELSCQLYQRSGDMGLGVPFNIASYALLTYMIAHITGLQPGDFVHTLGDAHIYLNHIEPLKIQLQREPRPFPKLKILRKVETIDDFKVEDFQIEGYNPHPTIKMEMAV

Row | Compound | CC50 ([1]; L1210, Table 1, read-out: CC50 L1210/TK^−) [nM] | IC50 [1, 9] [nM] | IC50 [1, 10] [nM] | CC50 [2] [nM] | IC50 [3] [nM] | IC50 [4] [nM] | CC50 ([5]; L1210/0, Table 2, mycoplasma negative cells, read-out: CC50 L1210) [nM] | IC50 ([5]; L1210/0, Table 3) [nM] | IC50 ([5]; L1210/0, Table 6) [nM] | IC50 ([5]; L1210/0, Table 7) [nM] | CC50 ([6]; Table 1, read-out: CC50 HeLa/TK^−) [nM] | IC50 ([6]; Table 6, read-out: IC50 HeLa/TK^−) [nM] | time to complete conversion of parent to the putative intermediate [7] [min] | Stability towards hydrolysis at pH 1 [8]
1 | O=c1[nH]c(=O)n([C@H]2C[C@H](O)[C@@H](CO)O2)cc1F [5-FdUrd, 5-fluoro-2′-deoxyuridine, reference compound] | 3100 ± 200 | 3100 | 3000 ± 100 | 700 ± 20 | 1420 ± 90 | 2500 ± 650 | – | – | – | – | – | – | – | –
2 | C[C@H](NP(=O)(OC[C@H]1O[C@@H](n2cc(F)c(=O)[nH]c2=O)CC1O)Oc1cccc2ccccc12)C(=O)OCc1ccccc1 (stereo partly drawn) [CPF 373, 5-Fluoro-2′deoxyuridine-5′-O-[1-naphthyl (benzoxy-L-alaninyl)] phosphate] | – | 27 | 45 ± 27 | 740 ± 180 | 53 | 600 ± 110 | 11 | 11 | 11 ± 7 | 11 ± 9 | 2500 ± 1300 | 2500 ± 1300 | ≤ 26 | full stability

Reference: patent publication US10993957B2 (NuCana plc, priority 2011, dated 2021)
